In article PMC8365601, “Terphenyl-Based Small-Molecule Inhibitors of Programmed Cell Death-1/Programmed Death-Ligand 1 Protein–Protein Interaction” (Journal of Medicinal Chemistry, 2021):
Where two headings read alike, the source gives them in different places.

What was measured:
PD-1/PD-L1 interaction = target: T1, PD-1/PD-L1 interaction (Homo sapiens, UniProt Q9NZQ7); assay: PD-1/PD-L1 ICB assay (Jurkat-ECs with CHO/TCRAct/PD-L1 cells, luciferase); type: cell-based
T1 construct: host or cells: CHO-K1 (CHO/TCRAct/PD-L1) and Jurkat effector cells
T1 sequence (Q9NZQ7 19-290): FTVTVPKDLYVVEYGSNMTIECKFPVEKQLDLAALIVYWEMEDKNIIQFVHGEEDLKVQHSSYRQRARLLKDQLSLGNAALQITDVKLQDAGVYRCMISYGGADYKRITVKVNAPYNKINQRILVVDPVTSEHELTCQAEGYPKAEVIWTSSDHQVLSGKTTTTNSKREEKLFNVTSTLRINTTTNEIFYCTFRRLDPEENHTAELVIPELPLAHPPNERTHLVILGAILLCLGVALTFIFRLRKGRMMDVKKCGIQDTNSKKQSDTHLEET
Method: After a successful optimization of the terphenyl compounds, the activity of the optimized molecules 7a and 8a–j in a cellular context was assessed. To this end, we first performed the PD-1/PD-L1 ICB assay. In this assay, T-cell receptor (TCR)-mediated activation of Jurkat effector cells (Jurkat-ECs) is reduced by the presence of PD-L1, exposed at the surface of CHO/TCRAct/PD-L1 cells (Figure 3A).
(§1) The functional assay of the blockade of PD-1/PD-L1 interaction in vitro (PD-1/PD-L1 Blockade Bioassay, Promega) was performed according to the manufacturer’s protocol. CHO/TCRAct/PD-L1 cells or CHO/TCRAct or CHO-K1 cells were seeded on 96-well white plates at the density of 10,000 cells/well and the next day overlaid with Jurkat T cells (20,000 cells/well) in the presence of increasing concentrations of the compounds with DMSO only as a control (the concentration of DMSO was kept constant at 0.1%) or atezolizumab, as a positive control, anti-PD-L1 monoclonal antibody (Selleckchem). The 2.5-fold dilutions of atezolizumab were prepared in the assay buffer (RPMI 1640 + 1% FBS) on the day of the assay. Activation of the Jurkat T cells, reflected by luciferase activity, was monitored by luminescence measurements after 6 h of incubation (37 °C, 5% CO2), and 20 min of additional incubation with the Bio-Glo assay reagent (Promega) at room temperature. The luminescence was read on a Spark microplate reader (Tecan). The data are presented as fold induction of the luminescence signal relative to either untreated (for atezolizumab) or DMSO-treated (for compound) cells. Data points represent mean ± SD values from three to five independent experiments. Half-maximal effective concentrations (EC50 values) were calculated from the Hill curve fitting to the experimental data using Origin Pro 2020 software (OriginLab).

[1] = Cytotoxicity assay toward Jurkat-ECs; type: cell-based; conditions: human, Jurkat-EC cells, SI csv
Method: The cytotoxicity of compounds was verified toward Jurkat-ECs since these cells provide the readout in the ICB assay and present a much higher degree of susceptibility to the compounds’ toxicity than CHO-K1 cells (not shown). Jurkat-ECs were seeded on 96-well transparent plates in the presence of increasing concentrations of the compounds with DMSO-treated cells as a control. The concentration of DMSO was kept constant (0.1%). After 48 h of incubation, a tetrazolium reagent, Biolog redox dye MIX MB (Biolog), was added according to the manufacturer’s protocol, and the culture plates were incubated for an additional 2 h (37 °C, 5% CO2). The absorbance was measured using a Spark microplate reader (Tecan) at 590 nm with 750 nm as a reference. The data are presented as Jurkat-EC survival relative to DMSO-treated control cells. Data points represent mean ± SD values from three independent experiments. Half-maximal effective concentrations (EC50 values) were calculated from the dose–response curve using OriginPro 2020 (OriginLab) software.

[2] = system: primary CD4+ and CD8+ T cells (PBMCs); assay: T-cell activation (TCA) assay, PBMCs with CHO/TCRAct/PD-L1 cells, flow cytometry; type: cell-based, human; conditions: 48 h; compounds 0.1, 0.5, 2.5 μM; mAbs 5 μg/mL
Method: A standard ICB assay relies on artificial Jurkat-ECs, which are surrogates of T-cells. To verify the potential of the compounds to reactivate the PD-L1-blocked primary T cells, a modified assay termed T-cell activation (TCA) was carried out.[32] In this assay, human primary peripheral blood mononuclear cells (PBMCs) are allowed to make contact with CHO/TCRAct/PD-L1 cells alone or in the presence of PD-1/PD-L1 blockers, and the activation of CD4^+ and CD8^+ T cell is monitored by flow cytometry.
Anticoagulant citrate dextrose-A-treated blood from healthy donors was purchased from the Regional Center of Blood Donation and Blood Therapy in Krakow, Poland. PBMCs were isolated from whole blood by density gradient centrifugation using Pancoll human separating solution (PAN-Biotech GmbH, Aidenbach, Germany). The separated cells were washed and resuspended in RPMI 1640 medium (Biowest) containing 10% FBS (Biowest). PBMCs were added at an amount of 3 × 10^5 to CHO, CHO/TCRAct, or CHO/TCRAct/PD-L1 cells preseeded on 24-well plates in the presence of either anti-PD-L1 mAbs (at the final concentration 5 μg/mL): durvalumab (Selleckchem), atezolizumab (Selleckchem), or avelumab (MedChemExpress) or tested compounds at the concentrations 0.1, 0.5, and 2.5 μM. Untreated cells were used as controls for antibody treatment, while DMSO-treated cells [0.1% (v/v)] were used as controls for compound treatment. The cells were incubated for 48 h (37 °C, 5% CO2) and then detached from the plates with TrypLe Select Enzyme (Thermo Fisher). PBMCs were stained for 20 min at room temperature with the antibodies: anti-CD4-FITC, anti-CD8-BV510, anti-CD69-APC, anti-CD25-PE, anti-HLA-DR-PerCP, and anti-PD1-PECy7 (Becton Dickinson Biosciences, BD). Following two washing steps, the cells were analyzed with a FACSCanto II cytometer. Data analysis was carried out with FlowJo software, followed by statistical significance calculations done with Origin Pro 2020 software (OriginLab). Statistical significance was analyzed with one-way analysis of variance (ANOVA), followed by the Fisher’s posthoc test: *p < 0.05, **p < 0.01, […].

[3] = system: Jurkat-ECs alone or with CHO wt or CHO/TCRAct cells; assay: ICB assay control where PD-L1 is absent; type: cell-based; conditions: 6 h; Figure S1
Method: as §1, with “(OriginLab). […]” for “(OriginLab).”
of the Immune Checkpoint Blockade (ICB) assay, where 8h, 8i, and 8j were used to restore the activation of effector Jurkat-ECs. Jurkat-ECs were either kept alone, or contacted with one of the following cell lines: wild type CHO K1 cells (CHO wt), CHO K1 cells expressing TCR Activator (CHO/TCRAct), or CHO K1 cells expressing TCR Activator and […]. The cells were incubated with the indicated concentrations of the compounds for 6 hours and luminescence was measured as an indicator of TCR-dependent activation of Jurkat-ECs. The graphs present fold induction of the luminescence signal relative to DMSO-treated cells. […]

PD-1/PD-L1 complex = PD-1/PD-L1 complex (Homo sapiens, UniProt Q9NZQ7); assay: HTRF assay of PD-1/PD-L1 complex dissociation (CisBio); conditions: for remaining activity at 0.005 µM: 2 h;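 as to all read-outs here: human PD-L1 at 5 nM with human PD-1 at 50 nM, TR-FRET signal read after 2 h at room temperature, background removed via negative control and scaled to positive control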
PD-1/PD-L1 complex, sequence (Q9NZQ7 19-238 limits assumed, one chain of several): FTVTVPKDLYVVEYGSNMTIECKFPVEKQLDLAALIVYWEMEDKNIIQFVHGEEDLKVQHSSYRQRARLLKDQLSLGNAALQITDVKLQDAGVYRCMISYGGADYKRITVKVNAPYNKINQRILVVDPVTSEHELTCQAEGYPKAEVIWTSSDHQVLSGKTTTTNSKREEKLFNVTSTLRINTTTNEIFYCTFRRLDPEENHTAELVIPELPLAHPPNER

[4] = system: PBMCs cocultured with CHO/TCRAct/PD-L1 cells; assay: Cytokine accumulation in culture media of the TCA assay (CBA Th1/Th2/Th17 kit); type: cell-based, human; conditions: TCA assay supernatants, four donors
Method: In addition to the expression of surface markers, the accumulation of immune-related cytokines in the culture media collected in the TCA assay was monitored with the cytometric bead array (CBA) human Th1/Th2/Th17 kit. […] Also, the levels of IL-6, IFN-γ, and IL-2 increased, but these increases were not statistically significant.
The concentration of the cytokines (IL-2, IL-4, IL-6, IL-10, IL-17A, IFN-γ, and TNFα) in supernatants was determined using the CBA Human Th1/Th2/Th17 kit (BD Biosciences), with data acquisition using the FACSCanto flow cytometer. The CBA beads were discriminated in FL-4 and FL-5 channels, while the concentration of specified cytokines was determined by the intensity of FL-2 fluorescence, using the respective standard reference curve and FCAP Array software (BD Biosciences). IL-4 was below the detection level and is not presented in the manuscript. Statistical significance was analyzed with one-way ANOVA using the Origin Pro 2020 software, followed by the Fisher’s posthoc test: *p < 0.05, **p < 0.01, […].

EC50 (PD-1/PD-L1 interaction; Jurkat-ECs with CHO/TCRAct/PD-L1, 6 h, SI csv, read-out: Bioactivity (EC50 in the ICB assay)) [nM]	remaining activity at 0.005 µM (PD-1/PD-L1 complex; read-out: % of undissociated complex at 5 nM) [%]	remaining activity at 0.005 µM (PD-1/PD-L1 complex; read-out: HTRF % of the undissociated complex at 5 nM) [%]	IC50 (PD-1/PD-L1 complex; HTRF, Table 4, <1.00 = limit of quantification reached) [nM]	Compound	selectivity of PD-1/PD-L1-blocking activity versus cytotoxicity (PD-1/PD-L1 interaction; EC50 (tox.) vs EC50 (bio.), Figure 3F)	EC50 at 48 h [1] [µM]	numbers of PD-1-positive T cells [2]	activation of Jurkat-ECs where PD-L1 is absent [3]	activation of Jurkat-ECs (PD-1/PD-L1 interaction; 6 h, fold induction of luminescence)	accumulation of immune-related cytokines in culture media [4]
2000 ± 370	6	6	< 1	COc1cc(-c2cccc(-c3ccc4c(c3)OCCO4)c2Cl)ccc1CNCCNC(N)=O [8h, 1-(2-(((3′-(Benzo-1,4-dioxan-6-yl)-2′-chloro-3-methoxy-[1,1′-biphenyl]-4-yl)methyl)amino)ethyl)urea]	highest selectivity	4.14 ± 0.71	significant increase	requires the presence of PD-L1	–	–
–	–	–	–	atezolizumab: therapeutic anti-PD-L1 monoclonal antibody, positive control	–	–	increases the expression of PD-1 on T-cells	–	full activation of Jurkat-ECs is restored	significantly increased levels of IL-17A, TNF-α, and IL-10
